Common to all, as to format: biochemical
One assay addresses T1, PDGFR β enzyme (Homo sapiens, UniProt P09619).
T1 construct: purchased Invitrogen P3082
Put plainly: Inhibitory activity to PDGFR β enzyme, HTRF kinEASE TK kit. The following applies: read-out: Inhibition rate % (PDGFR β). How it is done: HTRF kinEASE TK (Cat.62TK0PEC, Cisbio)
PDGFR β enzyme (Cat.P3082, Invitrogen)
1 mL 1×Kinase Buffer includes 200 μL 5×Enzyme buffer, 5 μL 1M MgCl2, 1 μL 1M DTT, 1 μL 1M MnCl2, 20 μL 2500 nM SEB, 773 μL ddH2O.
TK-Substrate and ATP are diluted to 2.5 times of reaction concentration with 1×PDGFR β Kinase Buffer.
5×PDGFR β enzyme working solution is prepared with 1×PDGFR β kinase buffer.
4×Sa-XL665 working solution is prepared with Detection Buffer.
TK-Ab-Cryptate is diluted 100 times with Detection Buffer to use as working solution.
Background: In TR-FRET formats the signal depends on donor and acceptor labels being close together.

The target of a further assay is T2, PI3 K γ (Homo sapiens, UniProt P48736).
T2 construct: purchased Biology, Medicilon
T2 sequence (P48736 whole entry): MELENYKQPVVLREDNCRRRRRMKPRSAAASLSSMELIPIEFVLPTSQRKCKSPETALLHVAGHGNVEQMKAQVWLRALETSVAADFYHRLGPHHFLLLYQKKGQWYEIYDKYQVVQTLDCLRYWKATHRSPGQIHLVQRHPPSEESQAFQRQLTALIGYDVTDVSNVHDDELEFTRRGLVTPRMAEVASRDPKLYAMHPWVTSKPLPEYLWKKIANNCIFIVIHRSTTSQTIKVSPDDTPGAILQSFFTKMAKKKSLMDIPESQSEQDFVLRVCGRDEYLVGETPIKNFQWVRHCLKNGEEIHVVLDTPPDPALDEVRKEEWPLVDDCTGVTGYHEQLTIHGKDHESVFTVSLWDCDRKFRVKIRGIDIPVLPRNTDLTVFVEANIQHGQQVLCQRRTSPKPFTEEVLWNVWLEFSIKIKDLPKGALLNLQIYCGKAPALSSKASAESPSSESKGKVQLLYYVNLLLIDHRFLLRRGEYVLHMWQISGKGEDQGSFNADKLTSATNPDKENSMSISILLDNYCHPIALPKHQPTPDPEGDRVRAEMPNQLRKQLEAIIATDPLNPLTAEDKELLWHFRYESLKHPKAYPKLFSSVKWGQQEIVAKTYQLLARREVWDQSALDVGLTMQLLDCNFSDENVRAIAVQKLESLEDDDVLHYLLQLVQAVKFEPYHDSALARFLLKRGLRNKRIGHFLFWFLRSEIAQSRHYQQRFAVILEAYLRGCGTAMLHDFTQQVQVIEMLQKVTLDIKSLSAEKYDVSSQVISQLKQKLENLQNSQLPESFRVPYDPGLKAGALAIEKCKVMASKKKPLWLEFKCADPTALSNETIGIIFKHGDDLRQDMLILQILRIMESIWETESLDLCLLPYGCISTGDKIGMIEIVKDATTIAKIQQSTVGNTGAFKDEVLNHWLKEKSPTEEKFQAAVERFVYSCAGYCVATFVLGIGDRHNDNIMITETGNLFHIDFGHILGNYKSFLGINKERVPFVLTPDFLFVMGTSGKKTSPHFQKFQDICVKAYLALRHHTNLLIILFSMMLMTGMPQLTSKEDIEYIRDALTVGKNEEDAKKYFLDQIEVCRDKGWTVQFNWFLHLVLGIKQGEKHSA
Briefly: Inhibitory activity to PI3K γ, PI 3-Kinase (human) HTRF Assay kit. The following applies: read-out: Inhibition rate % to PI3 K γ. The text has this: (§1) Study on the inhibitory activity of the compounds of present invention to PI 3κα, PI3κδ and PI3κγ. Two or three concentrations of the compounds are selected to preliminary screening to calculate respectively the activity inhibition rate of the compounds of corresponding concentrations to enzyme, then the compounds with better activity are selected by preliminary screening for IC50 test.
(§2) PI 3-Kinase (human) HTRF™ Assay kit (Cat.33-017, Millipore)
PI 3k γ (Biology, Medicilon)
(§3) 4× Reaction Buffer (Cat.33-002, Millipore) is diluted with ddH2O to 1.33×, and 1M DTT is added to make the final concentration as 6.67 mM. For example, 10 μL DTT is added into 500 μL 4× Reaction Buffer, and water is added to 1.5 mL.
(§4) The Test compounds are dissolved with DMSO to 1 mM as storage liquid. 2 μL of each of storage liquid is added into 48 μL ddH2O, to obtain the 40 μM compounds solution containing 4% DMSO. After mixing, 3 μL of each of the solution is added into 27 μL 4% DMSO (in ddH2O) to obtain the 4 μM compounds solution. 5 μL of each dilute solution is added into 384-well plates, then the final concentration of the compounds in the 20 μL final kinase reaction system is 10 μM and 1 μM respectively contained 1% DMSO. The dilution methods of compounds are similar to the preliminary screening in IC50 test.
(§5) 2×PIP2 working fluid is prepared with 1.33× reaction buffer to the final concentration of 20 μM.
The screening concentration of PI 3k γ kinase: 80 ng/well,
(§6) Kinase is diluted with 2×PIP2 operating fluid, the concentration of kinase operating fluid is 2 times of screening concentration.
(§7) 10 mM ATP is diluted with 1.33× reaction buffer to 400 μM. The concentration of ATP is 100 μM in 20 μL kinase reaction system.
(§8) Stop A and Stop B are mixed according to the proportion of 3:1, and are placed for 2 hours at room temperature to obtain the stop solution available.
(§9) DM C, DM A and DM B are mixed according to the proportion of 18:1:1, and are placed for 2 hours at room temperature to obtain the detection solution available.

Another assay addresses T3, PI3Kδ (Homo sapiens, UniProt O00329).
T3 construct: purchased Millipore 14-604
Put plainly: Inhibitory activity to PI3K δ, PI 3-Kinase (human) HTRF Assay kit. The following applies: read-out: Inhibition rate % to PI3Kδ; for inhibition at 1 µM: 1 μM (Table 7); for inhibition at 10 µM: 10 μM (Table 7). The protocol:
Study on the inhibitory activity of the compounds of present invention to PI 3κα, PI3κδ and PI3κγ.
as §2
For example, 10 μL DTT is added into 500 μL 4× Reaction Buffer, and water is added to 1.5 mL.
The Test compounds are dissolved with DMSO to 1 mM as storage liquid. 2 μL of each of storage liquid is added into 48 μL ddH2O, to obtain the 40 μM compounds solution containing 4% DMSO. After mixing, 3 μL of each of the solution is added into 27 μL 4% DMSO (in ddH2O) to obtain the 4 μM compounds solution. […]
The screening concentration of PI 3k δ kinase: 2 ng/well,
as §6
The concentration of ATP is 100 μM in 20 μL kinase reaction system.
as §8, §9

For a further assay, the target named is T4, PI3K α (Homo sapiens, UniProt P42336).
T4 construct: purchased Millipore 14-602
T4 sequence (P42336 whole entry): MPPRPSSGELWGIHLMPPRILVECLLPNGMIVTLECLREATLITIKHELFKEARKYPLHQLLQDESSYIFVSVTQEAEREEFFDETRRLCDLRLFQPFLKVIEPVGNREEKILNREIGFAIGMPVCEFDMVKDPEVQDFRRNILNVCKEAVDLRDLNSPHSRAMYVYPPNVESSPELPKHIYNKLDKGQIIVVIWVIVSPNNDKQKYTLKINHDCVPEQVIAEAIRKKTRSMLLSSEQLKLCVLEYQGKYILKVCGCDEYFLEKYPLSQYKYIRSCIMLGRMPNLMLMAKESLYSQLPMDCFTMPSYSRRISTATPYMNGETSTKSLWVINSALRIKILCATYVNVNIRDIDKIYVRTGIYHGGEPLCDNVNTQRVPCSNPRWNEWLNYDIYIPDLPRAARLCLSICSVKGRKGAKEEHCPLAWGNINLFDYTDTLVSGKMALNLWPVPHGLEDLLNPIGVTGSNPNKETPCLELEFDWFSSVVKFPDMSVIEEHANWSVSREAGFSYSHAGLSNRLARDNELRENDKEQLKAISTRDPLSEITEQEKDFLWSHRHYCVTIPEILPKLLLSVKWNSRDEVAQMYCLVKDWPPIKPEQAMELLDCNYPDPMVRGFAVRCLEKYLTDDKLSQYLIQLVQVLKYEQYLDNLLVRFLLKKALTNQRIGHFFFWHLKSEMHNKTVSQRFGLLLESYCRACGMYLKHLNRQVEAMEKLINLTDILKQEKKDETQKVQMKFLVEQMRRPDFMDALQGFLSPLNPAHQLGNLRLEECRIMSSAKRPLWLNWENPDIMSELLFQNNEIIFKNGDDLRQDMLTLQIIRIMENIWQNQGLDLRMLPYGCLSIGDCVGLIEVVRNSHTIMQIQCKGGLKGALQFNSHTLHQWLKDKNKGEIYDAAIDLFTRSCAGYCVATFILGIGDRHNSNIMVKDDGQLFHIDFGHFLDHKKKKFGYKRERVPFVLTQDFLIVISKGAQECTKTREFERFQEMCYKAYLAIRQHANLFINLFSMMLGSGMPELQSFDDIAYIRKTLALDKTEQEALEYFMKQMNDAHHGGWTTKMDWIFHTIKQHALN
T4 sequence (P27986 whole entry partner): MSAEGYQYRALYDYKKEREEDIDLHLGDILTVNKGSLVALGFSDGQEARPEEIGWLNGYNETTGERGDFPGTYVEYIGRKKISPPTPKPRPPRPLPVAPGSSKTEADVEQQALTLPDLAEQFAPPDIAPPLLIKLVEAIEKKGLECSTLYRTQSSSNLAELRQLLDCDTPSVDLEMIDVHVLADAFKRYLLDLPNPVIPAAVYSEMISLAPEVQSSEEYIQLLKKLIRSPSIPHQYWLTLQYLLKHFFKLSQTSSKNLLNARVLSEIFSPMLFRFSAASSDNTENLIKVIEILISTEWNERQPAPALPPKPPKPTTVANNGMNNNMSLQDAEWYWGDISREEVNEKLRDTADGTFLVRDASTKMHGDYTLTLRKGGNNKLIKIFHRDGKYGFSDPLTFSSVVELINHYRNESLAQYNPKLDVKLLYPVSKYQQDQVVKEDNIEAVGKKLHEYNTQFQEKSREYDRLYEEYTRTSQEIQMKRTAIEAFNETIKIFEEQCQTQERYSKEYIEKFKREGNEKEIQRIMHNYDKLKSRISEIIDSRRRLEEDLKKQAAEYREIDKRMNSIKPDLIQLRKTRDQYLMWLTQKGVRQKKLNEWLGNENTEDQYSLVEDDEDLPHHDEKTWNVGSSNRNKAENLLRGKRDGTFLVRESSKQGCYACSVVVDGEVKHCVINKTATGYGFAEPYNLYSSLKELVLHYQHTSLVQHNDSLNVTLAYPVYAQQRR
Put plainly: Inhibitory activity to PI3K α, PI 3-Kinase (human) HTRF Assay kit. Particulars: read-out: % Inhibition Rate to PI3K α.
Excerpt: as §1, §2
PI 3k α (Cat.14-602, Millipore)
as §3, §4, §5
The screening concentration of PI 3k α kinase: 8 ng/well,
as §6, §7, §8, §9

What is called inhibition is the change of the read-out against control, counted positive when it falls.

The structures appear in SMILES notation.

T1 sequence (P09619 33-1106): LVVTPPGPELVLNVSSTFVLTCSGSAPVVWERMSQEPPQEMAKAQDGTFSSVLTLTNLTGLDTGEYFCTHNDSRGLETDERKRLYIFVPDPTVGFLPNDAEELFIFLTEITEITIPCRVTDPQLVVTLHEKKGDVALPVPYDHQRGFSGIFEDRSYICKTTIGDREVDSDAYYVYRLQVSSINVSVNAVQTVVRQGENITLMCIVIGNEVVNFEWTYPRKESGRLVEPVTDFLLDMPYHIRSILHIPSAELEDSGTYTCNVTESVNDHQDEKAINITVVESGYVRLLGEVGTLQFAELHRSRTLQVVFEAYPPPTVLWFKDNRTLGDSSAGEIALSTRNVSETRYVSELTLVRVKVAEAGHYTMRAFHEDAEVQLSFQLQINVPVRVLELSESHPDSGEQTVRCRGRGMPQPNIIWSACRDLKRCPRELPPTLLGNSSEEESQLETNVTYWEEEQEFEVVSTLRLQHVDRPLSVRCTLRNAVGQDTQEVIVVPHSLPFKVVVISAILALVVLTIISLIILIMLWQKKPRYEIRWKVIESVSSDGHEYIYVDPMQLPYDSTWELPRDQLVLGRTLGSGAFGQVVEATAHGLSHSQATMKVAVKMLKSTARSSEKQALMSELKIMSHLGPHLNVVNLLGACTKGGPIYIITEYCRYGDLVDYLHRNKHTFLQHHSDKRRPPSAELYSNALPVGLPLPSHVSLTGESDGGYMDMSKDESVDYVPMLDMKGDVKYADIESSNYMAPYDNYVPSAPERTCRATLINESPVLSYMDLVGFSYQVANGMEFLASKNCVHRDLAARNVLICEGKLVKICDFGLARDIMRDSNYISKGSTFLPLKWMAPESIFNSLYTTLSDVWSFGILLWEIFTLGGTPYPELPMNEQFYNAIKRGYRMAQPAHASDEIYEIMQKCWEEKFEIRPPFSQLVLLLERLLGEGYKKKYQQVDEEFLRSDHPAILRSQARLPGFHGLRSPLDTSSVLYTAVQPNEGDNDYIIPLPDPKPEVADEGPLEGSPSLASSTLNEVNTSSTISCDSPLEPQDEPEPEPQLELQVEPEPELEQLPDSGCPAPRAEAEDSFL
T3 sequence (O00329 whole entry): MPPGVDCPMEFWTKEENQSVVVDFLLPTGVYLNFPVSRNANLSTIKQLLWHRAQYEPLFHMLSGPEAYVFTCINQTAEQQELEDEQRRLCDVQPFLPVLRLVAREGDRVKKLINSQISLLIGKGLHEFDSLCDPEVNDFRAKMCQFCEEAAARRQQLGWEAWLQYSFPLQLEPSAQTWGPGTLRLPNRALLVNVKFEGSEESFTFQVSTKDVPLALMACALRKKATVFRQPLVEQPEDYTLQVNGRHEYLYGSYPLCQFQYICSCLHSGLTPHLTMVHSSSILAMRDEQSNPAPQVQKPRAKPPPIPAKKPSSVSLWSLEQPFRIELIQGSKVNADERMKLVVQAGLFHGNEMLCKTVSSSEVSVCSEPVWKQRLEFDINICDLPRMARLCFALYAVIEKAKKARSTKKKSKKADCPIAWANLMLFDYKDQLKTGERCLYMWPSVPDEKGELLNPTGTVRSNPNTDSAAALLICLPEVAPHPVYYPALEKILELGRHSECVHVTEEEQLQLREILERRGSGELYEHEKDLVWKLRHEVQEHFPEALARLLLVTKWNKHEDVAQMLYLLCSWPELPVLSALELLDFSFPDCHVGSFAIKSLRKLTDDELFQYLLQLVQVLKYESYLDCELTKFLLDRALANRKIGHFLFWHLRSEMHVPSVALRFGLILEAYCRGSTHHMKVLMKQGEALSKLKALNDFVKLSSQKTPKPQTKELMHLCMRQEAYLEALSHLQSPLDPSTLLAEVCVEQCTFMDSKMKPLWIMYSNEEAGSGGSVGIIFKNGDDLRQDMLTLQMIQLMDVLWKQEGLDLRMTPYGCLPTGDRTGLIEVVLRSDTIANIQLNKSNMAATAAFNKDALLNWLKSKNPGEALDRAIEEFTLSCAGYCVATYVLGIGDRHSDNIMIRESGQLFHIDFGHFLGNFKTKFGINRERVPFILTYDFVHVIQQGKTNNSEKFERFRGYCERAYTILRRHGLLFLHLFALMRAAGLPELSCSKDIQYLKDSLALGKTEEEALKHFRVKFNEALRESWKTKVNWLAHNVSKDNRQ
T3 sequence (P27986 whole entry partner): as the sequence (P27986 whole entry partner) above

For `COC(=O)c1cccc(-c2ccnc3ccc(Nc4nc(NC5CC5)c5nc[nH]c5n4)cc23)c1` [MED1007-60, 4-(6-(6-(cyclopropylamino)-9H-purine-2-ylamino)quinoline-4-yl) m-methyl benzoate], the values for the inhibition at 1 µM at PDGFR β enzyme, on PI3 K γ and at PI3Kδ were -0.63%, -2.59% and -2.33%, respectively. The inhibition at 10 µM on PDGFR β enzyme worked out at 10.6%; at PI3 K γ, 4.45%; at PI3Kδ, 34.1%.

As to `COc1cccc(-c2ccnc3ccc(Nc4nc(NC5CC5)c5nc[nH]c5n4)cc23)c1` [MED1007-61, N6-cyclopropyl-N2-(4-(3-methoxyphenyl)quinoline-6-yl)-9H-purine-2,6-diamine], the results for the inhibition at 1 µM at PDGFR β enzyme, at PI3 K γ and on PI3Kδ were 4.72%, -8.18% and 16.7%, respectively. Besides, the inhibition at 10 µM on PDGFR β enzyme stood at 55%; at PI3 K γ it was 20.4%; at PI3Kδ, 102%.

As for `Fc1cccc(-c2ccnc3ccc(Nc4nc(NC5CC5)c5nc[nH]c5n4)cc23)c1` [MED1007-64, N6-cyclopropyl-N2-(4-(3-fluorophenyl)quinoline-6-yl)-9H-purine-2,6-diamine], the inhibition at 1 µM on PDGFR β enzyme is -3.26%; at PI3 K γ, -4.23%; on PI3Kδ, 14.1%. In addition, the inhibition at 10 µM on PDGFR β enzyme is 20.1%; at PI3 K γ, 15.9%; at PI3Kδ, 88.7%.

For `FC(F)(F)Cn1cnc2c(NC3CC3)nc(Nc3ccc4nccc(-c5ccccc5)c4c3)nc21` [MED1007-65, N6-cyclopropyl-N2-(4-phenylquinoline-6-yl)-9-(2,2,2-trifluoroethyl)-9H-purine-2,6-diamine], the inhibition at 1 µM amounted to 21.5% at PDGFR β enzyme, 0.69% at PI3K α, 1.54% at PI3 K γ and 7.48% on PI3Kδ. For the same compound, the inhibition at 10 µM on PDGFR β enzyme turned out to be 14%; at PI3K α, 10.2%; at PI3 K γ, 37.2%; on PI3Kδ, 38.4%.

For the compound `c1ccc(-c2ccnc3ccc(Nc4nc(NC5CC5)c5ncn(C6CCNCC6)c5n4)cc23)cc1` [MED1007-66, N6-cyclopropyl-N2-(4-phenylquinoline-6-yl)-9-(piperidine-4-yl)-9H-purine-2,6-diamine], the inhibition at 1 µM at PDGFR β enzyme is 17%; on PI3K α, -2.28%; at PI3 K γ, 1.48%; on PI3Kδ, 4.75%. The inhibition at 10 µM on PDGFR β enzyme was 14.5%; at PI3K α, -4.35%; on PI3 K γ, -2.46%; at PI3Kδ, 19.8%.

Turning to `COCCCNc1nc(Nc2ccc3nccc(-c4ccccc4)c3c2)nc2[nH]cnc12` [MED1007-67, N6-(3-methoxypropyl)-N2-(4-phenylquinoline-6-yl)-9H-purine-2,6-diamine], the inhibition at 1 µM at PDGFR β enzyme turned out to be 22.2%; at PI3K α, 3.77%; on PI3 K γ, 0.71%; at PI3Kδ, 11.3%. Further, the inhibition at 10 µM came out at 18.7% at PDGFR β enzyme, 37.2% at PI3K α, 10.2% on PI3 K γ and 32% at PI3Kδ.

On to `COCCNc1nc(Nc2ccc3nccc(-c4ccccc4)c3c2)nc2[nH]cnc12` [MED1007-68, N6-(2-methoxyethyl)-N2-(4-phenylquinoline-6-yl)-9H-purine-2,6-diamine], for which the inhibition at 1 µM at PDGFR β enzyme was 18.7%; at PI3K α it was 7.74%; at PI3 K γ, -0.02%; on PI3Kδ, 20.7%. Further, the inhibition at 10 µM worked out at 11.7% on PDGFR β enzyme, 51.9% on PI3K α, 10.8% at PI3 K γ and 42.3% on PI3Kδ.

Regarding `OCCNc1nc(Nc2ccc3nccc(-c4ccccc4)c3c2)nc2[nH]cnc12` [MED1007-69, 2-(2-(4-phenylquinoline-6-ylamino)-9H-purine-6-ylamino) ethanol], the inhibition at 1 µM at PDGFR β enzyme amounted to 11.7%; on PI3K α, 38.8%; at PI3 K γ, 1.27%; on PI3Kδ, 28.9%. Moreover, the inhibition at 10 µM on PDGFR β enzyme amounted to 31.8%; on PI3K α, 78.2%; at PI3 K γ, 21.1%; at PI3Kδ, 36.4%.

With `NCCNc1nc(Nc2ccc3nccc(-c4ccccc4)c3c2)nc2[nH]cnc12` [MED1007-70, N6-(2-aminoethyl 1)-N2-(4-phenylquinoline-6-yl)-9H-purine-2,6-diamine], the inhibition at 1 µM is 33.4% at PDGFR β enzyme, 26.6% on PI3K α, 5.26% at PI3 K γ and 41% at PI3Kδ. Further, the inhibition at 10 µM at PDGFR β enzyme is 73%; at PI3K α it was 62.5%; on PI3 K γ it was 10.8%; on PI3Kδ it was 51.6%.

With `COc1cccc(-c2ccnc3ccc(Nc4nc(NC5CCC5)c5nc[nH]c5n4)cc23)c1` [MED1007-71, N6-cyclobutyl-N2-(4-(3-methoxyphenyl)quinoline-6-yl)-9H-purine-2,6-diamine], the inhibition at 1 µM was 9.74% at PDGFR β enzyme, 10.4% on PI3K α, 2.55% on PI3 K γ and 24.4% at PI3Kδ. Moreover, the inhibition at 10 µM on PDGFR β enzyme is 4.5%; at PI3K α it was 75%; at PI3 K γ, 47.4%; on PI3Kδ it was 64.4%.

With `Fc1ccc(-c2ccnc3ccc(Nc4nc(NC5CCC5)c5nc[nH]c5n4)cc23)cc1` [MED1007-72, N6-cyclobutyl-N2-(4-(4-fluorophenyl)quinoline-6-yl)-9H-purine-2,6-diamine], the inhibition at 1 µM at PDGFR β enzyme was 7.25%; on PI3K α, 8.78%; at PI3 K γ, 2.15%; on PI3Kδ it was 33.9%. Besides, the inhibition at 10 µM on PDGFR β enzyme turned out to be 2.5%; at PI3K α, 65.9%; on PI3 K γ it was 42.7%; on PI3Kδ, 89.5%.

In the case of `c1ccc(-c2ccnc3ccc(Nc4nc(NC5CCCC5)c5nc[nH]c5n4)cc23)cc1` [MED1007-106, N6-cyclopentyl-N2-(4-phenylquinoline-6-yl)-9H-purine-2,6-diamine], the inhibition at 1 µM at PI3K α turned out to be 24.4%; at PI3Kδ, 32.9%. The inhibition at 10 µM on PI3K α is 97.4%; at PI3Kδ, 89.1%.

As to `c1ccc(-c2ccnc3ccc(Nc4nc(OC5CCCCC5)c5nc[nH]c5n4)cc23)cc1` [MED1007-107, N-(6-cyclohexyloxy-9H-purine-2-yl)-4-phenyl quinoline-6-amine], at PI3K α, the inhibition at 1 µM was determined as 29.9% and the inhibition at 10 µM was 65.8%. Further, at PI3Kδ, the inhibition at 1 µM worked out at 29.3% and the inhibition at 10 µM was determined as 119%.

These data come from US9718823B2, “2, 6-Di-nitrogen-containing substituted purine derivative, and preparation method, pharmaceutical composition and use thereof” (Zhejiang Medicine Co., Ltd. Xinchang Pharmaceutical Factory, priority 2013, dated 2017).
